This passage reports Emax, EC50 and blood glucose reduction results from patent publication US9290517B2, “Azabenzimidazole hexahydrofuro[3,2-b]furan derivatives” (Merck Sharp & Dohme Corp., priority 2012, dated 2016).

Molecules are shown by their SMILES. pEC50: −log10 of the molar value.

The target in assay [1] is recombinant human AMPK complex 7 (containing α2β1γ1) (Homo sapiens (Human), UniProt P54646+Q9Y478). The assay can be described thus: in vitro AMPK activation assay (AMPKSAMSF), complex 7. The class given is biochemical. As to conditions: for Emax: 10-point titration, expressed as % maximum AMP activation; for pEC50: inflection point reflecting 50% of the maximum activation, table head names AMPK complex 7. As for the experimental part:
AMPKSAMSF (in vitro AMPK activation assay)
The recombinant human AMPK complex 1 (containing α1β1γ1) or AMPK complex 7 (containing α2β1γ1) was obtained from baculovirus expression system. Recombinant viruses were generated by cotransfection of AMPK/pBacPak9 clones with Baculogold baculovirus DNA (Pharmingen) in spodoptera frugiperda 21 cells according to the manufacturer's instructions. Each round of virus amplification was performed for 5 days in Grace's medium containing 10% serum. Virus that had been subjected to three rounds of amplification was used for all protein production procedures. To express the AMPK complex, sf21 cells were adapted to serum free medium (SF900II, Invitrogen) by sequential dilution from serum containing stocks into SF900II medium and maintained in shaker flasks at 90 rpm at 27° C. The recombinant AMPK enzyme complex was produced by triple infection, one recombinant virus for each of the subunits, in sf21 cells under serum free conditions. Cells were infected in log phase, 1×10^6 cells/ml, at a multiplicity of infection of 5. Cells were harvested by centrifugation at 10,000×g for 15 minutes after 72 hours of infection with viruses. The insect cell pellet from 2 liters of culture was resuspended in 50 ml lysis buffer (20 mM Tris-HCl, 50 mM NaCl, 50 mM NaF, 30 mM Na PPi, 0.25 M sucrose, 10 mM ZnCl2, 2 mM DTT, 0.4 mg/ml digitonin) and subjected to two cycles of freeze-thaw lysis in a dry-ice ethanol bath. Insoluble material was removed by centrifugation at 10,000×g and the supernatant was fractionated with use of polyethylene glycol (PEG). The protein fraction precipitating between 2.5 and 6% PEG was used for further purification using a Blue-Sepharose step (Zhou et al, J. Clin. Invest. 108, 1167-1174, 2001).
The in vitro AMPK activation assay is performed in a volume of 30 μl in a 384-well plate. Enzyme reactions were assembled in the microtiter plate by adding 15 μl of 2× enzyme in assay buffer (20 mM HEPES, pH 7.3, 5 mM MgCl2, 3 mM DTT, 0.01% Brij 35 and CamK Kinase, to activate AMPK) to wells which contained either DMSO or compound. The reaction was initiated with the addition of 15 μl 2× substrate mixture containing 200 μM ATP, and 3.0 μM fluorescently labeled SAMS (5-FAM-HMRSAMSGLHLVKRR-COOH) in assay buffer. After 45-minute incubation at 25° C., the reaction was stopped by the addition of 70 μl stop buffer (100 mM HEPES, pH 7.3, 40 mM EDTA, 0.015% Brij 35). Phosphorylated 5-FAM SAMS product is assessed using a Caliper EZ Reader LabChip microfluidics reader. Product conversion is determined by calculating the peak heights of the substrate and product and reporting the product/(product+substrate) peak ratio. The 10-point titration data were expressed as % maximum AMP activation. The results were plotted using 4 parameter fit and the inflection point reflecting 50% of the maximum activation was reported as the EC50.

The next assay has as its system ob/ob and db/db mice. As to conditions: following 8 weeks of administration; cited from earlier work.

Chain of recombinant human AMPK complex 7 (containing α2β1γ1) (P54646 whole entry): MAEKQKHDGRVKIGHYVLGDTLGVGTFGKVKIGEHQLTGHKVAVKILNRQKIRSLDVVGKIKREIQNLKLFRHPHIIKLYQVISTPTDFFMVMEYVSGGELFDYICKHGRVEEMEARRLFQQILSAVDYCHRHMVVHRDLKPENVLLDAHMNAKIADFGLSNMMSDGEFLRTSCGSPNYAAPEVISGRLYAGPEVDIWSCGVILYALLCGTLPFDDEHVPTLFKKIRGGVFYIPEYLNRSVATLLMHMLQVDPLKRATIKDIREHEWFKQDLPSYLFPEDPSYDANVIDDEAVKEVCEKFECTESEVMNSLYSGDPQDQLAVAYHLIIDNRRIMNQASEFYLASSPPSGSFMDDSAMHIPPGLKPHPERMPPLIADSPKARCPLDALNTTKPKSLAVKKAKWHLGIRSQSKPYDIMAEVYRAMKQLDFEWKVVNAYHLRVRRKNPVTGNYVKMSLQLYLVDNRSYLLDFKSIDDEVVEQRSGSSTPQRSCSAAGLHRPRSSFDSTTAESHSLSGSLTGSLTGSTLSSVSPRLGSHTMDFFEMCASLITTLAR
Chain of recombinant human AMPK complex 7 (containing α2β1γ1) (Q9Y478 whole entry): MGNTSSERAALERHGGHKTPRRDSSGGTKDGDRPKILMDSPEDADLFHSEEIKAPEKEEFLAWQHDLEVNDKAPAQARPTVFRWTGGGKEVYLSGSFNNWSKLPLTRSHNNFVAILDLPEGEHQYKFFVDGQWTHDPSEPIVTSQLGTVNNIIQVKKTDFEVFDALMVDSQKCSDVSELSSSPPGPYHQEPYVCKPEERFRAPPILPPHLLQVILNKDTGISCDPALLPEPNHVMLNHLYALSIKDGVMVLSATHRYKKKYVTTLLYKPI
Chain of recombinant human AMPK complex 7 (containing α2β1γ1) (P54619 whole entry partner): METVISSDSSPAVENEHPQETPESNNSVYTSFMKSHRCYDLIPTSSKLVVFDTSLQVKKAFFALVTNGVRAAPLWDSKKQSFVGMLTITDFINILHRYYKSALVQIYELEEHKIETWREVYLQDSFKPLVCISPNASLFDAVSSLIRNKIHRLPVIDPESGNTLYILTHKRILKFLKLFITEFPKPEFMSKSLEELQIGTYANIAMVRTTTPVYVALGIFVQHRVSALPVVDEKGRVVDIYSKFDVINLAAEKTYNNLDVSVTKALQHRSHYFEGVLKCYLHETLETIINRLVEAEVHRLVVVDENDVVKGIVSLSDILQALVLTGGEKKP

Broadly, the Emax is the greatest response seen or fitted, relative to the assay's reference. The pEC50 is the EC50 on a negative log10 scale, so that one unit is a factor of ten. Turning to `C=CCO[C@@H]1CO[C@H]2[C@@H]1OC[C@H]2Oc1nc2nc(-c3ccc(-c4ccccc4)cc3)c(Cl)cc2[nH]1` [Example 18], in assay [1], the Emax worked out at 72% and the pEC50 is 8.22.
The matching figures for `CC(C)(O)CN1Cc2cn(-c3ccc(-c4nc5nc(O[C@@H]6CO[C@H]7[C@@H]6OC[C@H]7O)[nH]c5cc4Cl)cc3)nc2C1` [Example 14, (3R,3aR,6R,6aR)-6-[[6-chloro-5-[4-[5-(2-hydroxy-2-methyl-propyl)-5,6-dihydro-4H-pyrrolo[3,4-c]pyrazol-5-ium-2-yl]phenyl]-1H-imidazo[4,5-b]pyridin-2-yl]oxy]-2,3,3a,5,6,6a-hexahydrofuro[3,2-b]furan-3-ol; 2,2,2-trifluoroacetate]: 276% and 7.54.
The matching figures for `N#Cc1ccc(-c2ccc(-c3nc4nc(O[C@@H]5CO[C@H]6[C@@H]5OC[C@H]6O)[nH]c4cc3Cl)cc2)c(F)c1` [Example 102]: 304% and 8.30.
On the same counts, the results for `CCN(CC)c1ccc(-c2ccc(-c3nc4nc(O[C@@H]5CO[C@H]6[C@@H]5OC[C@H]6O)[nH]c4cc3Cl)cc2)cc1` [Example 105] are 268% and 8.30.
Take `CN(C)CCOc1ccc(-c2ccc(-c3nc4nc(O[C@@H]5CO[C@H]6[C@@H]5OC[C@H]6O)[nH]c4cc3Cl)cc2)cc1` [Example 151]: in assay [1], the maximal effect (Emax) is 323% and the negative logarithm of the EC50 (pEC50) was 8.70.
On the same counts, the results for `Cc1nnc(-c2ccc(-c3ccc(-c4nc5nc(O[C@@H]6CO[C@H]7[C@@H]6OC[C@H]7O)[nH]c5cc4Cl)cc3)cc2)o1` [Example 87] are 285% and 8.52.
On the same counts, the results for `O=c1ccn(-c2ccc(-c3ccc(-c4nc5nc(O[C@@H]6CO[C@H]7[C@@H]6OC[C@H]7O)[nH]c5cc4Cl)cc3)cc2)[nH]1` [Example 150] are 322% and 9.00.
The matching figures for `OCc1ccc(-c2ccc(-c3nc4nc(O[C@@H]5CO[C@H]6[C@@H]5OC[C@H]6O)[nH]c4cc3Cl)cc2)cc1` [Example 146]: 354% and 8.40.
Turning to `CC1(c2ccc(-c3ccc(-c4nc5nc(O[C@@H]6CO[C@H]7[C@@H]6OC[C@H]7O)[nH]c5cc4Cl)cc3)cc2)COC1` [Example 145], in assay [1], the Emax turned out to be 348% and the pEC50 was 8.10.
The matching figures for `O[C@@H]1CO[C@H]2[C@@H]1OC[C@H]2Oc1nc2nc(-c3ccc(-c4ccc(Cn5ncnn5)cc4)cc3)c(Cl)cc2[nH]1` [Example 142]: 337% and 8.70.
On the same counts, the results for `O[C@@H]1CO[C@H]2[C@@H]1OC[C@H]2Oc1nc2nc(-c3ccc(-c4ccc(Cn5ccnc5)cc4)cc3)c(Cl)cc2[nH]1` [Example 147] are 348% and 8.40.
On the same counts, the results for `O=c1[nH]c(-c2ccc(-c3ccc(-c4nc5nc(O[C@@H]6CO[C@H]7[C@@H]6OC[C@H]7O)[nH]c5cc4Cl)cc3)cc2)no1` [Example 138] are 333% and 8.40.
In the case of `O[C@@H]1CO[C@H]2[C@@H]1OC[C@H]2Oc1nc2nc(-c3ccc(-c4ccc(-n5cc(C(O)(O)C(F)(F)F)nn5)cc4)cc3)c(Cl)cc2[nH]1` [Example 128], in assay [1], the Emax turned out to be 286% and the pEC50 was 8.70.
The matching figures for `O[C@@H]1CO[C@H]2[C@@H]1OC[C@H]2Oc1nc2nc(-c3ccc(C#CC4CCNCC4)cc3)c(Cl)cc2[nH]1` [Example 71]: 420% and 8.00.
Take `NC(=O)c1ncn([C@@H]2O[C@H](CO)[C@@H](O)[C@H]2O)c1N` [AICAR]: the blood glucose reduction in the assay with ob/ob and db/db mice is reported as 35%.
Consider `O=c1ncn(-c2ccc(-c3ccc(-c4nc5nc(O[C@@H]6CO[C@H]7[C@@H]6OC[C@H]7O)[nH]c5cc4Cl)cc3)cc2)[nH]1` [Example 129], for which, in assay [1], the Emax was 305% and the negative logarithm of the EC50 (pEC50) is 9.00.
The matching figures for `Cc1cc(-c2ccc(-c3ccc(-c4nc5nc(O[C@@H]6CO[C@H]7[C@@H]6OC[C@H]7O)[nH]c5cc4Cl)cc3)cc2)c(=O)[nH]n1` [Example 131]: 289% and 8.52.
On the same counts, the results for `O=c1[nH]ccn1-c1ccc(-c2ccc(-c3nc4nc(O[C@@H]5CO[C@H]6[C@@H]5OC[C@H]6O)[nH]c4cc3Cl)cc2)cc1` [Example 73] are 357% and 8.40.
The matching figures for `CC(CO)(CO)c1ccc(-c2ccc(-c3nc4nc(O[C@@H]5CO[C@H]6[C@@H]5OC[C@H]6O)[nH]c4cc3Cl)cc2)cc1` [Example 79]: 337% and 8.70.
Turning to `O=C1CC(c2ccc(-c3ccc(-c4nc5nc(O[C@@H]6CO[C@H]7[C@@H]6OC[C@H]7O)[nH]c5cc4Cl)cc3)cc2)CN1` (stereo partly drawn) [Example 149], in assay [1], the maximal effect (Emax) was 322% and the negative logarithm of the EC50 (pEC50) was 8.70.
The matching figures for `O[C@@H]1CO[C@H]2[C@@H]1OC[C@H]2Oc1nc2nc(-c3ccc(-c4ccc(C5CNCCO5)cc4)cc3)c(Cl)cc2[nH]1` (stereo partly drawn) [Example 133]: 359% and 9.00.
The matching figures for `O=C(O)CCCc1ccc(-c2ccc(-c3nc4nc(O[C@@H]5CO[C@H]6[C@@H]5OC[C@H]6O)[nH]c4cc3Cl)cc2)cc1` [Example 86]: 314% and 8.40.
The matching figures for `O=C(O)C1CCC(c2ccc(-c3ccc(-c4nc5nc(O[C@@H]6CO[C@H]7[C@@H]6OC[C@H]7O)[nH]c5cc4Cl)cc3)cc2)=N1` (stereo partly drawn) [Example 125]: 350% and 8.22.
For `Cn1c(-c2ccc(-c3ccc(-c4nc5nc(O[C@@H]6CO[C@H]7[C@@H]6OC[C@H]7O)[nH]c5cc4Cl)cc3)cc2)cnc1N` [Example 127], in assay [1], the Emax came out at 281% and the pEC50 was 8.40.
The matching figures for `Oc1ccnc(-c2ccc(-c3ccc(-c4nc5nc(O[C@@H]6CO[C@H]7[C@@H]6OC[C@H]7O)[nH]c5cc4Cl)cc3)cc2)n1` [Example 130]: 291% and 8.70.
The matching figures for `O[C@@H]1CO[C@H]2[C@@H]1OC[C@H]2Oc1nc2nc(-c3ccc(-c4ccc(C5Cc6nccn6C5)cc4)cc3)c(Cl)cc2[nH]1` (stereo partly drawn) [Example 126]: 303% and 8.52.
